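Each compound was tested at five concentrations against cells in 96-well plates for 48 hours. TGI is the concentration that stops growth completely.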

Among the test systems are OVCAR-3 ovarian; HOP-92 NSCLC; SK-OV-3 ovarian; A549 NSCLC; IGROV1 ovarian; NCI/ADR-RES ovarian; CAKI-1 renal; BT-549 breast; KM12 colon; NCI-H226 lung.
Common to all, as to experiment: NCI-60 cell line screen, 48 h

In the case of `CCOc1ccc(N=Nc2ccc3cc(/C(C)=N/NC(=O)/C(C#N)=C\c4ccc(N(CCC#N)CCC#N)cc4)c(=O)oc3c2)cc1`, the TGI in the experiment on OVCAR-3 ovarian, in the experiment on HOP-92 NSCLC, in the experiment on SK-OV-3 ovarian, with A549 NSCLC, in the experiment on IGROV1 ovarian and in the experiment with NCI/ADR-RES ovarian was greater than 10 µM each time. Also, the TGI in the experiment on CAKI-1 renal, with BT-549 breast, in the experiment on KM12 colon and in the experiment with NCI-H226 lung was greater than 10 µM throughout.

In the case of `CC(=O)OCC(=O)O[C@@H]1[C@H]2[C@@H](OC(=O)c3ccccc3)[C@@H](C)C[C@]2(O)[C@H](OC(C)=O)[C@@]2(C)C[C@]1(OC(C)=O)C[C@H]1C(=O)C(C)(C)[C@@H](OC(C)=O)[C@@H]12`, the TGI in the experiment on OVCAR-3 ovarian, in the experiment on HOP-92 NSCLC, in the experiment on SK-OV-3 ovarian, in the experiment on A549 NSCLC, with IGROV1 ovarian and with NCI/ADR-RES ovarian was greater than 25 µM each time. Also, the TGI with CAKI-1 renal, in the experiment with BT-549 breast, with KM12 colon and in the experiment with NCI-H226 lung was greater than 25 µM in each case.

As for `C=C(C)[C@H]1CC(=O)/C(C)=C\CC/C(C)=C/CC[C@@]2(C)O[C@@H]2C1`, the TGI in the experiment on OVCAR-3 ovarian was 43.9 µM; with HOP-92 NSCLC, greater than 100 µM; with SK-OV-3 ovarian, 59 µM; in the experiment on A549 NSCLC it was 34.5 µM; in the experiment on IGROV1 ovarian, greater than 100 µM; in the experiment on NCI/ADR-RES ovarian it was 56 µM. In addition, the TGI in the experiment on CAKI-1 renal was 9.41 µM; in the experiment with BT-549 breast it was greater than 100 µM; in the experiment on KM12 colon, 44.3 µM.

For `CC1(C)OC[C@@H](C[C@H](O)COCc2ccccc2)O1`, the TGI in the experiment on OVCAR-3 ovarian, in the experiment with HOP-92 NSCLC, in the experiment on SK-OV-3 ovarian, in the experiment on A549 NSCLC, in the experiment on IGROV1 ovarian and in the experiment on NCI/ADR-RES ovarian was greater than 100 µM in each case. The TGI in the experiment with CAKI-1 renal, in the experiment on BT-549 breast, in the experiment on KM12 colon and with NCI-H226 lung was greater than 100 µM each time.

For the compound `Cn1nc2c(c1N)Cc1c(nn(C)c1N)-c1ccccc1-2`, the TGI with OVCAR-3 ovarian, with HOP-92 NSCLC, with SK-OV-3 ovarian, in the experiment with A549 NSCLC, in the experiment on IGROV1 ovarian and in the experiment with NCI/ADR-RES ovarian was greater than 100 µM throughout. Also, the TGI in the experiment on CAKI-1 renal, in the experiment on BT-549 breast, in the experiment on KM12 colon and in the experiment on NCI-H226 lung was greater than 100 µM throughout.

`Cc1cc(S(=O)(=O)Nc2n[nH]c(Nc3ccccc3)n2)c(SCC(=O)O)cc1Cl`: the TGI in the experiment with OVCAR-3 ovarian, in the experiment on HOP-92 NSCLC, in the experiment with SK-OV-3 ovarian, in the experiment on A549 NSCLC, in the experiment on IGROV1 ovarian and in the experiment with NCI/ADR-RES ovarian was greater than 100 µM each time. The TGI in the experiment on CAKI-1 renal, with BT-549 breast, with KM12 colon and with NCI-H226 lung was greater than 100 µM each time.

In the case of `O=C(/C=C\Nc1ccccc1O)C(F)(F)F`, the TGI is 87 µM in the experiment with OVCAR-3 ovarian; greater than 100 µM with HOP-92 NSCLC; greater than 100 µM with SK-OV-3 ovarian; greater than 100 µM with A549 NSCLC; greater than 100 µM with IGROV1 ovarian; greater than 100 µM with NCI/ADR-RES ovarian. Moreover, the TGI in the experiment with CAKI-1 renal, in the experiment on BT-549 breast, in the experiment on KM12 colon and in the experiment on NCI-H226 lung was greater than 100 µM throughout.

For the compound `COc1cc2c3c(cc(Cl)nc3c1OC)C(=O)C(=O)N2`, the TGI in the experiment on OVCAR-3 ovarian worked out at 32.5 µM; in the experiment with HOP-92 NSCLC, 3.44 µM; with SK-OV-3 ovarian, 33.3 µM; with A549 NSCLC it was 38.6 µM; in the experiment on IGROV1 ovarian, 25.1 µM; in the experiment on NCI/ADR-RES ovarian it was 53.1 µM. Besides, the TGI stood at 28.6 µM with CAKI-1 renal, 29.8 µM with BT-549 breast, 30.3 µM with KM12 colon and 41.5 µM in the experiment on NCI-H226 lung.

Regarding `Cc1nnc2n1-c1ccccc1N(Cc1ccccc1)CC2`, the TGI in the experiment with OVCAR-3 ovarian was greater than 100 µM; with HOP-92 NSCLC it was 51.9 µM; in the experiment on SK-OV-3 ovarian, greater than 100 µM; in the experiment with A549 NSCLC, greater than 100 µM; in the experiment on IGROV1 ovarian, greater than 100 µM; in the experiment with NCI/ADR-RES ovarian, 69.2 µM. Also, the TGI was greater than 100 µM in the experiment on CAKI-1 renal, 76.2 µM with BT-549 breast, greater than 100 µM in the experiment on KM12 colon and greater than 100 µM with NCI-H226 lung.

`Cc1ccc2c(c1C)CC1(Cc3c(C)ccc(C)c3C1=O)C2=O` (stereo unspecified): the TGI in the experiment on HOP-92 NSCLC, in the experiment with SK-OV-3 ovarian, with A549 NSCLC, in the experiment on IGROV1 ovarian, with NCI/ADR-RES ovarian and in the experiment with CAKI-1 renal was greater than 100 µM throughout. For the same compound, the TGI in the experiment with BT-549 breast, in the experiment with KM12 colon and with NCI-H226 lung was greater than 100 µM throughout.

As for `CC1CCc2sc3nc4n(c(=O)c3c2C1)CC(C)S4` (stereo unspecified), the TGI in the experiment on OVCAR-3 ovarian was 36.7 µM; in the experiment on HOP-92 NSCLC it was 64.9 µM; with SK-OV-3 ovarian, 96.3 µM; in the experiment on A549 NSCLC, 70.5 µM; in the experiment on IGROV1 ovarian, greater than 100 µM; in the experiment on NCI/ADR-RES ovarian it was greater than 100 µM. For the same compound, the TGI is greater than 100 µM with CAKI-1 renal, greater than 100 µM in the experiment on BT-549 breast, greater than 100 µM in the experiment with KM12 colon and 63.8 µM in the experiment on NCI-H226 lung.

`COC(=O)C1=C(C(=O)OC)SC(=C2SC3=C(SC(=C4SCCS4)S3)S2)S1`: the TGI in the experiment with HOP-92 NSCLC, in the experiment with SK-OV-3 ovarian, in the experiment with A549 NSCLC, in the experiment on IGROV1 ovarian, in the experiment with NCI/ADR-RES ovarian and in the experiment on CAKI-1 renal was greater than 100 µM throughout. The TGI with BT-549 breast, in the experiment on KM12 colon and in the experiment with NCI-H226 lung was greater than 100 µM each time.

Turning to `C[N+]1(CCN=C=NC2CCCCC2)CCOCC1`, the TGI in the experiment on OVCAR-3 ovarian, in the experiment on HOP-92 NSCLC, in the experiment on SK-OV-3 ovarian, with A549 NSCLC, in the experiment on IGROV1 ovarian and in the experiment with NCI/ADR-RES ovarian was greater than 100 µM in each case. Besides, the TGI with CAKI-1 renal, with BT-549 breast, in the experiment on KM12 colon and in the experiment with NCI-H226 lung was greater than 100 µM each time.

`C#CCOCC12C=CC(O1)C1COC(=O)C12` (stereo unspecified): the TGI in the experiment with OVCAR-3 ovarian, with HOP-92 NSCLC, in the experiment with SK-OV-3 ovarian, with A549 NSCLC, with IGROV1 ovarian and in the experiment with NCI/ADR-RES ovarian was greater than 100 µM each time. Besides, the TGI with CAKI-1 renal, in the experiment on BT-549 breast, in the experiment with KM12 colon and in the experiment with NCI-H226 lung was greater than 100 µM throughout.

As for `O=C1NC(=S)NC(=O)C1C(c1ccc(Cl)cc1)C1C(=O)NC(=S)NC1=O`, the TGI with OVCAR-3 ovarian, in the experiment with HOP-92 NSCLC, in the experiment on A549 NSCLC, in the experiment with IGROV1 ovarian, in the experiment on NCI/ADR-RES ovarian and in the experiment with CAKI-1 renal was greater than 100 µM throughout. Also, the TGI in the experiment on BT-549 breast, with KM12 colon and in the experiment on NCI-H226 lung was greater than 100 µM each time.

As for `O=C1CS/C(=N/N=C/c2cn(Cc3ccc(Cl)cc3Cl)c3ccccc23)N1`, the TGI in the experiment on OVCAR-3 ovarian, in the experiment on HOP-92 NSCLC, in the experiment on SK-OV-3 ovarian, with A549 NSCLC, with IGROV1 ovarian and in the experiment with NCI/ADR-RES ovarian was greater than 100 µM in each case. The TGI with CAKI-1 renal, in the experiment with BT-549 breast, with KM12 colon and with NCI-H226 lung was greater than 100 µM in each case.

In the case of `Clc1ccc(OCc2nnc(COc3ccc(OCc4nnc(COc5ccc(Cl)cc5Cl)o4)c(Cl)c3)o2)c(Cl)c1`, the TGI with OVCAR-3 ovarian is 61.7 µM; in the experiment with HOP-92 NSCLC, 33.5 µM; in the experiment with A549 NSCLC it was greater than 100 µM; in the experiment on IGROV1 ovarian it was 38.1 µM; in the experiment with NCI/ADR-RES ovarian, 66.7 µM; with CAKI-1 renal, 54.9 µM. Moreover, the TGI with BT-549 breast, with KM12 colon and with NCI-H226 lung was greater than 100 µM in each case.

In the case of `Oc1c(OCc2nnc(CCCCCCCCc3nnc(COc4ccc5ccccc5c4O)o3)o2)ccc2ccccc12`, the TGI with HOP-92 NSCLC, in the experiment on SK-OV-3 ovarian, in the experiment on A549 NSCLC, with NCI/ADR-RES ovarian, in the experiment with CAKI-1 renal and with BT-549 breast was greater than 100 µM in each case. The TGI in the experiment on KM12 colon and in the experiment on NCI-H226 lung was greater than 100 µM each time.

For the compound `COc1cccc(N2C(=O)CS(=O)(=O)C2c2cccc(Oc3ccccc3)c2)c1` (stereo unspecified), the TGI in the experiment on OVCAR-3 ovarian is greater than 100 µM; with HOP-92 NSCLC, 68.5 µM; in the experiment with SK-OV-3 ovarian, greater than 100 µM; with A549 NSCLC it was greater than 100 µM; with NCI/ADR-RES ovarian it was 77.3 µM; with CAKI-1 renal, greater than 100 µM. In addition, the TGI with BT-549 breast is 61.4 µM; in the experiment with KM12 colon, greater than 100 µM; with NCI-H226 lung, 76.7 µM.

`CC(C)(C)c1cc(/C=C2/NC(=O)NC2=O)cc(C(C)(C)C)c1O`: the TGI with OVCAR-3 ovarian was found to be 27.9 µM; in the experiment with HOP-92 NSCLC, 27.9 µM; with SK-OV-3 ovarian it was 32 µM; in the experiment on IGROV1 ovarian it was 31.1 µM; in the experiment on NCI/ADR-RES ovarian, 34.1 µM; in the experiment on CAKI-1 renal, 31.5 µM. The TGI with BT-549 breast worked out at 27.3 µM; in the experiment on KM12 colon, 28.5 µM; in the experiment with NCI-H226 lung, 33 µM.

These data come from PubChem BioAssay (NCI).
